In PMC6385123, “Design, Synthesis, Anticancer Evaluation and Molecular Modeling of Novel Estrogen Derivatives” (Molecules, 2019):
Read-outs that look alike come from different tables or passages of the source.

Tests used:
MCF-10A cells = assay: In vitro cytotoxicity against normal non-tumorigenic cells, MTT assay; type: cell-based; settings: normal non-tumorigenic MCF-10A cells, read-out: IC50 (Mean ± SEM) MCF-10A
Protocol: (§1) MCF-7 (human breast cancer) cells, obtained from Sigma-Aldrich Chemie GmbH, Taufkirchen, Germany, were propagated in RPMI-1640 supplemented with 10% heat inactivated FBS, 2 mM L-glutamine, and 1% standard antibiotic solution. Cells were incubated in a 5% CO2 humidified incubator at 37 °C and passaged bi-weekly. The in vitro anti-proliferative activity of the newly synthesized derivatives was assayed using standard MTT technique. Results were expressed as IC50. Experiments were repeated at least in triplicate, to obtain good reproducibility between replicate wells with standard errors below 10%. Furthermore, the cytotoxic effects of the prepared derivatives were evaluated against normal nonmalignant cells, non-tumorigenic MCF-10A, in order to find out if the synthesized derivatives have toxicity against normal cells. Additionally, results were compared with reference compounds (cisplatin and milaplatin) as positive controls.

MCF-7 cells = assay: In vitro cytotoxic activity, MTT assay, MCF-7; type: cell-based, human; settings: MTT assay, MCF-7 cell line, read-out: IC50 (Mean ± SEM) MCF-7
Protocol: as §1

VEGFR-2 = VEGFR-2 (Homo sapiens, UniProt P35968); assay: VEGFR-2 kinase inhibition assay; type: biochemical; settings: 8 μM ATP, poly(Glu,Tyr)4:1 substrate; read-out: IC50 (Mean ± SEM) VEGFR-2
Sequence of VEGFR-2 (P35968 20-1356): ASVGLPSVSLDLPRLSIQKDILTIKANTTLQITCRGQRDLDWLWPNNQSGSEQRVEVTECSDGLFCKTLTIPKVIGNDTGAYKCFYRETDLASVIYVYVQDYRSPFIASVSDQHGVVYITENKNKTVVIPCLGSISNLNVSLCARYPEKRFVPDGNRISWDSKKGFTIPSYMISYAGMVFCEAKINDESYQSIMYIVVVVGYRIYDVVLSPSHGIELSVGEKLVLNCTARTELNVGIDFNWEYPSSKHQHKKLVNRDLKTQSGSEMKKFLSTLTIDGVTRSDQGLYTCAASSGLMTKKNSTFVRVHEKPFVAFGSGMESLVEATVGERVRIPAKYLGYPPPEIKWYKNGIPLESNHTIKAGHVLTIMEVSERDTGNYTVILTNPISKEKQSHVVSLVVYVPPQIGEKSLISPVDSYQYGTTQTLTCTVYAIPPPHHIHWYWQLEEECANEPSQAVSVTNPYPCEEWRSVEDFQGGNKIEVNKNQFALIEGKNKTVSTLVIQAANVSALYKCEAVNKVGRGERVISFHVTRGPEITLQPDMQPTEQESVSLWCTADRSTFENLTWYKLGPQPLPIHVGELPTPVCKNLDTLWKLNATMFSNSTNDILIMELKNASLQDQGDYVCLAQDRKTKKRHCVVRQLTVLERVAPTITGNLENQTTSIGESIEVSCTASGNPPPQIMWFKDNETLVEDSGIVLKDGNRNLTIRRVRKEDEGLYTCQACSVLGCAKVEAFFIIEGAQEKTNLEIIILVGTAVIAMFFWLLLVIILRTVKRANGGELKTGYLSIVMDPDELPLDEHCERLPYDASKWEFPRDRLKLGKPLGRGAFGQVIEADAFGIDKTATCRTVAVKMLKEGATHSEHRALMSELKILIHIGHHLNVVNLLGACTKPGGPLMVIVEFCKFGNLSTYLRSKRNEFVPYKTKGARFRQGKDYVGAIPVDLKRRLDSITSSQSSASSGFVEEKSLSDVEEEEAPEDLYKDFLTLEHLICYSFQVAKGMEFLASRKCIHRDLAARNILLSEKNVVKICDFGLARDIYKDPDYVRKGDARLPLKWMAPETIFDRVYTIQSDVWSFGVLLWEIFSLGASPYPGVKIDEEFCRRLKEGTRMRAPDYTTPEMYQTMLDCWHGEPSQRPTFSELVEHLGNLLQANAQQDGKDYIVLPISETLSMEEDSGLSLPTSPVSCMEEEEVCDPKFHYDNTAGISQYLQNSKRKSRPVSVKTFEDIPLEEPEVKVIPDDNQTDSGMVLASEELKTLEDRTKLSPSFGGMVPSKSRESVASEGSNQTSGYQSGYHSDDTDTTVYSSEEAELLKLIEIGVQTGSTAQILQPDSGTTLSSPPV
Protocol: (§2) The EGFR and VEGFR-2 kinase activities were assayed as previously described. The assay was performed in 96-well plates pre-coated with 20 μg mL^−1 poly (Glu, Tyr)4:1 (Sigma-Aldrich Chemie GmbH, Taufkirchen, Germany) as a substrate. In each well, 85 μL of an 8 μM ATP solution and 10 μL of the compound were added at varying concentrations. Experiments were repeated three times. Reactions started with 5 μL of different kinases and incubation for 1 h at 37 °C. Plates were 3X-washed with PBS/0.1% Tween 20. Accordingly, 100 μL of anti-phosphotyrosine (PY99; 1:500 dilutions) antibody was added, and plates were incubated for another hour at room temperature. Plates were then 3X-washed, and addition of goat anti-mouse IgG horseradish peroxidase (100 μL; 1:2000 dilution) diluted in T-PBS containing 5 mg mL^−1 BSA followed. Plates were further incubated at room temperature for another hour, and then 3X-washed. Finally, 100 μL (developing solution, 0.03% H2O2, 2 mg mL^−1 o-phenylenediamine/citrate buffer, 0.1 M, pH 5.5) was added and incubation continued until color development. The reaction was stopped by 100 μL of 2M H2SO4, and the absorption was measured at 492 nm using a multiwell spectrophotometer (VERSAmax™). The inhibition rate (%) was calculated using the equation:Inhibition rate (%) = [1 − (A492/A492Control)] × 100%(1)

p53 ubiquitination = assay: In vivo ubiquitination of p53 (transfected cells); type: cell-based; settings: cells transfected with p53, MDM2, HIS-ubiquitin; exposed 6 h; read-out: IC50 (Mean ± SEM) In Vivo p53 Ubiquitination
Protocol: In vivo ubiquitination of p53 was assayed according to [38] Cells were grown for 24 h (50% confluency) before transfection of 1 µg p53, 4 µg MDM2 and 1 µg HIS-ubiquitin with Gene Juice reagent. Grown for another 20 h, cells were exposed to prepared derivatives or controls for 6 h and MG132 for 4 h, then washed and collected in PBS, where 5% of the solution was kept as an input. The remaining pelleted cells (95% after centrifugation) were lysed in 700 µL of ubiquitin buffer A (6 M guanidinium HCl, 300 mM NaCl, 50 mM phosphate pH 8.0, 100 µg/mL N-ethylmaleimide), and sonicated for 5 min at 20% amplitude. Lysates were incubated overnight with Invitrogen Dynabeads His-Tag matrix and washed once with ubiquitin buffers A, B, C and phosphate buffered saline (ubiquitin buffer B: Mix ubiquitin buffer A and ubiquitin buffer C 1:1; ubiquitin buffer C: 300 mM NaCl, 50 mM phosphate pH 8.0, 100 µg/mL N-ethylmaleimide). The washed lysates were resolved by 8% sodium dodecyl sulfate–polyacrylamide gel electrophoresis, followed by immunoblotting with a p53 (DO-1) antibody.

[1] = target: T1, p53 ubiquitination (GST-tagged HDM2) (Homo sapiens, UniProt Q00987); assay: In vitro p53 ubiquitination assay; type: biochemical; settings: GST-tagged HDM2, p53, ubiquitin, E1 and E2 (UbcH5B); read-out: IC50 (Mean ± SEM) In Vitro p53 Ubiquitination
T1 construct: GS4b-MDM2 RING beads were prepared as above and were used in place of the full-length MDM2; made in house; host or cells: Escherichia coli BL21
T1 sequence (Q00987 whole entry): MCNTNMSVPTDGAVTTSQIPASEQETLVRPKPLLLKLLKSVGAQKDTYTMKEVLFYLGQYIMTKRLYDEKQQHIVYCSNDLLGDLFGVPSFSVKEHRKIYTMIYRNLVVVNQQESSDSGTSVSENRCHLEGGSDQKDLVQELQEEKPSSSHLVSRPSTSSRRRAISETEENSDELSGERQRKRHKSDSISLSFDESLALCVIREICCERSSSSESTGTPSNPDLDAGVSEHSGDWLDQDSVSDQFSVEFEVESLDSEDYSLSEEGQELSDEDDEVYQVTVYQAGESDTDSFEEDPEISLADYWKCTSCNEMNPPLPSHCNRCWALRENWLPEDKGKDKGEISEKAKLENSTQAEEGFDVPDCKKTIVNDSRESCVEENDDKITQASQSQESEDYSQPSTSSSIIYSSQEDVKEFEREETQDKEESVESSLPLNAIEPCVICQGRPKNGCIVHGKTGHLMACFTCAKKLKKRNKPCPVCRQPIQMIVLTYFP
Protocol: Different prepared derivatives were evaluated for their inhibitory potential against p53 ubiquitination. The method is based on incubating different compounds with GST-tagged HDM2, immobilized on glutathione-Sepharose, p53, ubiquitin, E1 and E2 (UbcH5B) ligases. The buffer contained ATP as detailed by Gomha and Abdelaziz. The reaction products were then resolved by SDSPAGE and p53 ubiquitination and were quantified by Western blotting using an anti-p53 antibody.
Briefly, rGSH-S-transferase-tagged MDM2 (GST-MDM2) was expressed in Escherichia coli BL21 cells using 1 mM isopropyl-thio-b-D-galactoside for 3 h. The enzyme was then purified on glutathione-sepharose beads (Amersham). Beads were washed with Tris (pH 7.5). The reaction contained fluorescent ubiquitin (5 µg; Invitrogen), 50 ng mammalian E1 (Enzo), 200 ng human rUbcH5B E2 (Enzo), 200 ng His-p53 (Enzo) and buffer [50 mM Tris pH 8,2 mM dithiothreitol, 5 mM MgCl2, 2 mM adenosine triphosphate (ATP)]. The MPD-compound or control mixture was dose-titrated onto GS4b-MDM2 beads. Incubation at 37 °C was followed by shaking (1200 rpm, 1 h). The reaction was terminated with 3× sodium dodecyl sulfate sample buffer. Finally, unbound fluorescent ubiquitin was drained and the total fluorescent ubiquitin signal was measured using a plate reader (Safire).
The procedure was performed similar to the aforementioned protocol except that 5 µg unlabeled ubiquitin (Enzo) was used. Following incubation, resolving of reaction products was performed using sodium dodecyl sulfate PGE. Analysis was done by western blotting using anti-p53 DO-1. For the MDM2 RING auto-ubiquitination assay, GS4b-MDM2 RING beads were prepared as above and were used in place of the full-length MDM2.

EGFR = EGFR (Homo sapiens, UniProt P00533); assay: EGFR kinase inhibition assay; type: biochemical; settings: 8 μM ATP, poly(Glu,Tyr)4:1 substrate; read-out: IC50 (Mean ± SEM) EGFR
Sequence of EGFR (P00533 25-1210): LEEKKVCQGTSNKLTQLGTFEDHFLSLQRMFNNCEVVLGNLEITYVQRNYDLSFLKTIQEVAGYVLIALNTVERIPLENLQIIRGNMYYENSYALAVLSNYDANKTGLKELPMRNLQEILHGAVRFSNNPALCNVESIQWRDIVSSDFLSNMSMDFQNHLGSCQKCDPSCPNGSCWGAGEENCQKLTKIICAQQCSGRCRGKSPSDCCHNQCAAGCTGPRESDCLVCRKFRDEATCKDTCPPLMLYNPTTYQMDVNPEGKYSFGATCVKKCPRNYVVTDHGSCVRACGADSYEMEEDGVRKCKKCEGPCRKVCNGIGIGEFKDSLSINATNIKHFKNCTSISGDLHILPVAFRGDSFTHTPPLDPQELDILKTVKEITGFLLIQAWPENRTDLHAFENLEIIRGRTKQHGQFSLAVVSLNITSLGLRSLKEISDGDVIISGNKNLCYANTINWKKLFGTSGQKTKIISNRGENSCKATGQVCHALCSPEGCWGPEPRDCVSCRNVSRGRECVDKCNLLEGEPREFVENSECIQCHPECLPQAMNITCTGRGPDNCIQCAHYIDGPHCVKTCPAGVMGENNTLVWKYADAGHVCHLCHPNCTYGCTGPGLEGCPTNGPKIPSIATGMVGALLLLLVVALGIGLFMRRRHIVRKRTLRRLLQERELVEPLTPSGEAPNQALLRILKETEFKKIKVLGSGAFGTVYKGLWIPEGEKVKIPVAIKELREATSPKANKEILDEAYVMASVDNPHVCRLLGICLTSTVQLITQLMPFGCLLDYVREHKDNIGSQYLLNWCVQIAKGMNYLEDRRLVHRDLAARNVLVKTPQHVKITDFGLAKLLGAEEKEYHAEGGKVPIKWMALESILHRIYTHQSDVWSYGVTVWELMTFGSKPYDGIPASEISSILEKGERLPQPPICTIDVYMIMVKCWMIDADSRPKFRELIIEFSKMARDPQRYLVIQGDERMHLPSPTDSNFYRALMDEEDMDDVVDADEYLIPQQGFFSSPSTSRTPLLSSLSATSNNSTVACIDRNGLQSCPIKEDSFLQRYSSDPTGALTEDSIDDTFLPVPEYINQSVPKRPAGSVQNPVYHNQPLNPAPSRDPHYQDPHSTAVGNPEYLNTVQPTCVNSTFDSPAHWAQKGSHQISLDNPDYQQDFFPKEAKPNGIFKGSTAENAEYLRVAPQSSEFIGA
Protocol: as §2

Compound | IC50 (MCF-10A cells) [µM] | IC50 (MCF-7 cells) [µM] | IC50 (VEGFR-2) [nM] | melting point [°C] | IC50 (p53 ubiquitination) [nM] | IC50 [1] [µM] | IC50 (EGFR) [nM] | IC50 (MCF-10A cells; Homo sapiens) [µM] | IC50 (MCF-7 cells; Homo sapiens, MCF7) [µM]
N.N.[Cl][Pt][Cl] [Cisplatin, reference compound] | 9.55 ± 0.54 | 13.34 ± 0.11 | – | – | – | – | – | – | –
CC12CCC3c4ccc(O)cc4CCC3C1CC1=C2NC(=O)NC1c1ccccc1Cl (centres unmarked) [Compound 3a, 2′-Oxo-6′-(2-chlorophenyl)-estra-1(10),2,4,16(17)-tetraien-[17,16-d]pyrimidino-3-ol] | – | – | 47 ± 3 | 266 to 268 | 600 ± 8.6 | 47.6 ± 0.6 | 127 ± 3.7 | 401 ± 11.6 | 35.7 ± 0.4
CC12CCC3c4ccc(O)cc4CCC3C1CC1=C2NC(=O)NC1c1ccc(Cl)cc1 (centres unmarked) [Compound 3b, Oxo-6′-(4-chlorophenyl)-estra-1(10),2,4,16(17)-tetraien-[17,16-d]pyrimidino-3-ols] | – | – | 48 ± 1.4 | 308 to 310 | 630 ± 9.5 | 53.6 ± 0.78 | 155 ± 5.1 | 422 ± 13.8 | 38.6 ± 0.87
CC12CCC3c4ccc(O)cc4CCC3C1CC1=C2NC(=S)NC1c1ccccc1Cl (centres unmarked) [Compound 4a, 2′-Thione-6′-(2-chlorophenyl)-estra-1(10),2,4,16(17)-tetraien-[17,16-d]pyrimidine-3-ol] | – | – | 37 ± 2.6 | 290 to 292 | 450 ± 8.5 | 36.6 ± 0.58 | 95 ± 2.8 | 302 ± 8.86 | 28.64 ± 0.28
CC12CCC3c4ccc(O)cc4CCC3C1CC1=C2NC(=S)NC1c1ccc(Cl)cc1 (centres unmarked) [Compound 4b, 2’-Thione-6’-(4-chlorophenyl)-estra-1(10),2,4,16(17)-tetraien-[17,16-d]-pyrimidine-3-ol] | – | – | 43 ± 1.8 | 333 to 335 | 570 ± 9.7 | 45.8 ± 0.49 | 98 ± 0.9 | 311 ± 9.59 | 31.8 ± 0.39
CC12CCC3c4ccc(O)cc4CCC3C1CC1=C2NC(=N)NC1c1ccc(Cl)cc1 (centres unmarked) [Compound 5b, 2′-Imino-6′-(4-chlorophenyl)-estra-1(10),2,4,16(17)-tetraien-[17,16-d]pyrimidino-3-ol] | – | – | 29 ± 0.3 | 326 to 328 | 310 ± 5.3 | 27.6 ± 0.34 | 88 ± 1.3 | 235 ± 7.76 | 22.5 ± 0.24
CC12CCC3c4ccc(O)cc4CCC3C1CC1=C2NC(=NC#N)NC1c1ccccc1Cl (centres unmarked) [Compound 6a, 2′-Cyanoimino-6′-(2-chlorophenyl)-estra-1(10),2,4,16(17)-tetraien-[17,16-d]pyrimidino-3-ol] | – | – | 31 ± 4.1 | 223 | 320 ± 6.3 | 28.47 ± 0.25 | 90 ± 0.6 | 244 ± 7.78 | 24.57 ± 0.16
CC12CCC3c4ccc(O)cc4CCC3C1CC1=C2NC(=NC#N)NC1c1ccc(Cl)cc1 (centres unmarked) [Compound 6b, 2′-Cyanoimino-6′-(4-chlorophenyl)-estra-1(10),2,4,16(17)-tetraien-[17,16-d]-pyrimidino-3-ol] | – | – | 33 ± 1 | 282 to 284 | 420 ± 7.4 | 29.5 ± 0.36 | 91 ± 2.5 | 277 ± 8.23 | 26.46 ± 0.17
CC12CCC3c4ccc(O)cc4CCC3C1CC1C2=NN(C(N)=O)C1c1ccccc1Cl (centres unmarked) [Compound 7a, 1-Carbamoyl-1′H-(2’H)-5′-(2-chlorophenyl)-estra-1(10),2,4-trien-[17,16-c]pyrazoline-3-ol] | – | – | 55 ± 1.3 | 298 to 300 | 860 ± 6.8 | 66.7 ± 0.86 | 188 ± 1.6 | 466 ± 17.3 | 41.1 ± 0.84
CC12CCC3c4ccc(O)cc4CCC3C1CC1C2=NN(C(N)=O)C1c1ccc(Cl)cc1 (centres unmarked) [Compound 7b, 1-Carbamoyl-1’H-(2’H)-5’-(4-chlorophenyl)-estra-1(10),2,4-trien-[17,16-c]pyrazoline-3-ol] | – | – | 57 ± 0.5 | 248 to 250 | 890 ± 9.9 | 77.6 ± 0.97 | 227 ± 0.4 | 512 ± 16.6 | 46.2 ± 0.93
CC12CCC3c4ccc(O)cc4CCC3C1CC1C2=NN(C(N)=S)C1c1ccccc1Cl (centres unmarked) [Compound 8a, 1-Thiocarbamoyl-1′H-(2′H)-5′-(2-chlorophenyl)-estra-1(10),2,4-trien-[17,16-c]pyrazoline-3-ol] | – | – | 51 ± 1.7 | 294 to 296 | 740 ± 8.7 | 55.4 ± 0.69 | 166 ± 2.8 | 435 ± 14.6 | 39.5 ± 0.75
CC12CCC3c4ccc(O)cc4CCC3C1CC1C2=NN(C(N)=S)C1c1ccc(Cl)cc1 (centres unmarked) [Compound 8b, 1-Thiocarbamoyl-1′H-(2′H)-5′-(4-chlorophenyl)-estra-1(10),2,4-trien-[17,16-c]pyrazoline-3-ol] | – | – | 53 ± 2.3 | 252 to 256 | 820 ± 7.8 | 64.6 ± 0.78 | 177 ± 4.1 | 446 ± 15.4 | 40.4 ± 0.95
Oc1cc(O)c2cc(O)c(-c3cc(O)c(O)c(O)c3)[o+]c2c1 [Delphinidin, reference compound] | – | – | 5090 ± 1.2 | – | – | – | 6270 ± 0.76 | – | –
Milaplatin [reference compound] | 18.3 ± 0.34 | 18.43 ± 0.13 | – | – | – | – | – | – | –
